# Laboratory results: patent US9914910B2, “Methods of preserving and protecting pancreatic beta cells and treating or preventing diabetes by inhibiting NOX-1” (Eastern Virginia Medical School, priority 2013, dated 2018)
# Key:
# [1] = system: NOX-1 gene expression in primary mouse islets; assay: PIC-induced NOX-1 gene expression (RT-PCR); assay type: cell-based
# Source text: Human donor islets were obtained from integrated islet distribution project (http://iidp.coh.org) and cultured in CMRL media (Mediatech, Manassas, Va.). Mouse islets were freshly isolated from 8-week old male C57BL/6J mice (Jackson Laboratory, Bar Harbor, Me.) by common bile duct cannulation and collagenase digestion. Islets were hand picked prior to use. […] Total RNA was isolated using the RNeasy Mini Kit (Qiagen, Valencia, Calif.) and cDNA prepared using MMLV reverse transcriptase (Life Technologies) and random hexamers (Life Technologies). Jump Start Taq polymerase (Life Technologies) was used in PCR reactions. Primers used with SYBR Green 1 (Molecular Probes, Carlsbad, Calif.) probes: […] GAPDH forward [NT] ID NO: 3); GAPDH reverse [NT] NO: 4). RT-PCR reactions were performed in triplicate (CFX96 Bio-Rad, Hercules, Calif.). Taqman primers (Life Technologies) were also used.
# βTC-3 cells = assay: ROS measurement (DCF-DA) after PIC; assay type: cell-based, mouse; conditions: βTC-3, PIC 1 hour
# Experimental: βTC-3 cells were cultured in DMEM media (Life Technologies, Grand Island, N.Y.) supplemented with 18% fetal calf serum, 1% penicillin/streptomycin, 4 mM L-glutamine, 5.5 mM glucose, and 1 mM sodium pyruvate at 370 C with 5% CO2.
# Cells treated for 1 hour were then washed with PBS prior to addition of 10 μM 6-Carboxy-2′,7′-Dichlorodihydrofluorescein Diacetate, Di(Acetoxymethyl ester) (DCF-DA, Life Technologies) for 30 min at 370 C. Post PBS wash cells were incubated at 370 C for 1 hour. Prior to fluorescence measurement (SpectraMax Molecular Devices, Sunnyvale, Calif.) at excitation 480 nm: emission 530 nm.
# Elevation of cellular ROS in beta-cell lines INS-1 (rat beta-cell line) and βTC-3 (mouse beta-cell line) was evaluated by conversion of fluorescent substrate DCF-DA. Following one hour stimulation with a pro-inflammatory cytokine cocktail (PIC; IL-1β, TNF-α, and IFN-γ) detectable ROS elevated from control levels of 0.05±0.02 and 0.09±0.03 (INS-1 and βTC-3 respectively) to 0.25±0.04 and 0.23±0.03 (INS-1 and βTC-3 respectively). This increase was significant p<0.05 and p<0.01 (INS-1 and βTC-3 respectively).
# primary mouse islets = assay: Apoptosis by YO-PRO-1 fluorescence microscopy after PIC; assay type: cell-based
# Experimental: Human donor islets were obtained from integrated islet distribution project (http://iidp.coh.org) and cultured in CMRL media (Mediatech, Manassas, Va.). Mouse islets were freshly isolated from 8-week old male C57BL/6J mice (Jackson Laboratory, Bar Harbor, Me.) by common bile duct cannulation and collagenase digestion. Islets were hand picked prior to use.
# B. Fluorescence microscopy: Stimulated cells or islets were washed in cold PBS, and incubated for 30 mins at 40 C with cold PBS containing 1 μg/mL propidium iodide and 0.1 μM YO-PRO-1 (Life Technologies). For cell lines, five randomly fields per well were analyzed. For islets, all islets (>1000 um2 in size) were analyzed. Densitometric fluorescent value for YO-PRO-1 (green channel) was normalized to background and expressed proportional to cell occupied area (phase contrast). Images captured across three channels with Axiophot (Zeiss, Jena, Germany) with Axiovision (Zeiss) image analysis.
# FIG. 1: Treatment of primary mouse islets with inflammatory cytokines (TNFα, IL-1β, IFNγ) induces islet/beta cell death (apoptosis) which can be measured in a fluorescent-based assay (green signal) using YO-PRO-1. […] The degree of cell death can be quantified by measuring the green signal. The graph is a quantitative analysis of multiple (≧4 visual fields in replicate wells). The detected relative fluorescent units (RFU) are plotted. […]
# [2] = system: NOX-1 protein in βTC-3 cells; assay: NOX-1 protein expression (western blot); assay type: cell-based; conditions: Mus musculus, 24 h; read-out: inhibition of PIC induction of NOX-1 protein
# Experimental: (§1) Cells were then lysed (1× PBS, 1% Triton X-100, 1 mM PMSF, 1 mM Halt Protease Inhibitor Cocktail (Pierce, Rockford, Ill.), 1 mM NaVO4), and incubated on ice for 20 min. Cleared (14,000 rpm, 15 min, 4° C.) lysate was collected. Proteins separated on 10% Tris-glycine gels (Life Technologies) were transferred onto PDVF (Immobilon-FL, Millipore, Billerca, Mass.). Membranes were blocked in TBS/0.05% Tween (Sigma) plus 5% non-fat milk (Bio-Rad) for 1 hr at room temperature before incubation overnight at 40 in primary antibody with gentle shaking. The membrane was washed between antibody cycles four times for 5 min each in TBS/Tween (0.05%). Primary antibodies: 1:250 Anti-NOX-1 or 1:1000 β-actin 1 (Abcam, Cambridge, Mass.).
# (§2) Signal detected with 1:2000 HRP-secondary antibody for 1 hour (GE Healthcare, Buckinghamshire, UK) SuperSignal Chemiluminescent Substrate (Thermo Scientific, Rockford, Ill.) on a ChemiDoc XRS System (Bio-Rad). Densitometry was determined using Image J (http://rsb-web.nih.gov/i/).
# [3] = system: NOX-1 protein in INS-1 cells; assay: NOX-1 protein expression (western blot); assay type: cell-based; conditions: Rattus norvegicus, INS1, 24 h; read-out: inhibition of PIC induction of NOX-1 protein
# Experimental: as §1, §2
# [4] = system: MCP-1, IL-12p40, IL-12 p35, IFNγ gene expression in primary mouse islets; assay: Cytokine-induced target gene expression (real time PCR); assay type: cell-based; conditions: NCTT-1 100 nM, ML171 1 μM
# Experimental: (§3) Total RNA was isolated using the RNeasy Mini Kit (Qiagen, Valencia, Calif.) and cDNA prepared using MMLV reverse transcriptase (Life Technologies) and random hexamers (Life Technologies). Jump Start Taq polymerase (Life Technologies) was used in PCR reactions. […] RT-PCR reactions were performed in triplicate (CFX96 Bio-Rad, Hercules, Calif.). Taqman primers (Life Technologies) were also used. Data was normalized to the housekeeping gene GAPDH and analyzed using the 2-ΔΔCT method.
# Data is quantitative real time PCR gene expression analysis from triplicate experiments performed in replicate. Fold induction in gene expression over control (non cytokine-treated) islets is graphed.
# [5] = system: NOX-1 gene expression in primary human donor islets; assay: PIC-induced NOX-1 gene expression (RT-PCR); assay type: cell-based; conditions: 1 μM ML171
# Experimental: as §3
# INS-1 cells = assay: Caspase-3 assay (pro-caspase-3 cleavage) after PIC; assay type: cell-based, rat; conditions: INS-1, PIC 4 hours, up to
# Experimental: A. Caspase-3 Assay: Pro-caspase-3 cleavage was measured using a caspase-3 Assay kit (BD Pharmigen, Franklin Lakes, N.J.) per the manufacturer's instructions; fluorescence being measured (SpectraMax, Molecular Devices, Sunnyvale, Calif.) at excitation 380 nm and emission 440 nm (INS-1) or 460 nm (βTC-3, mouse).
smiles,measurement,setting,value
"CC(=O)c1ccc2c(c1)Nc1ccccc1S2 [ML171, 2-acetylphenothiazine]",inhibition of PIC-induced expression of NOX-1,"[1]; 1 μM, 24 hours",84%
same,induction of gene NOX-1 by PIC,"[1]; NCTT-1 100 nM, ML171 1 μM",attenuated
same,inhibition of PIC-induced ROS (DCFDA conversion),βTC-3 cells,dose dependent inhibition
same,cytokine induced cell death (YO-PRO-1 RFU),"primary mouse islets; 1 μM, p<0.05",protected islets from cytokine induced cell death
same,reduction of PIC induced islet apoptosis,"primary mouse islets; 10 μM, 24 hours",86%±4%
same,inhibition at 1 µM,[2],100%
same,inhibition at 1 µM,[3],100%
same,induction of gene IFNγ by PIC,[4],attenuated
same,induction of gene IL-12 p35 by PIC,[4],attenuated
same,induction of gene IL-12p40 by PIC,[4],attenuated
same,induction of gene MCP-1 by PIC,[4],attenuated
same,inhibition of PIC-induced expression of NOX-1,[5],50%
same,block of PIC-induced activation of caspase-3,INS-1 cells,up to 100%±3.4%
